Assays:
[1] = test system: db/db mice; assay: Liver histology (H&E, perilipin antibody) of db/db mice after 6 weeks; format: in vivo, C57BLKS/J-db/db mice; settings: administered for 6 weeks, compared with control group
Protocol: (§1) 5-week-old male C57BLKS/J-db/db mice (Central Lab. Animal Inc.) were purchased and acclimatized for 2 weeks, and then used in this experiment. Samples were exactly taken from the compounds prepared in Examples 4 and 15 of the present invention (Compounds 5 and 16) according to the administration dose and put into Falcon tubes, a 0.5% methyl cellulose aqueous solution stored refrigerated was placed at room temperature to allow the excipients to be warmed at room temperature, 16 ml of each of the excipients was added to a 50 ml Falcon tube, and a vortex mixer was used to primarily mix the ingredients in a soft manner, and then a suspension was obtained and homogenized by treating the sample for 3 minutes using a homogenizer (30,000 rpm, CPT-1600E, Kinemtica, Switzerland), and then ultrasonically treated for 30 minutes. The sample thus prepared was administered through oral gavage using a disposable plastic syringe equipped with a sonde once daily for 42 days (6 weeks).
The mouse to which Compound 16 had been administered for 6 weeks in this experiment was finally sacrificed and autopsied to collect a liver, the liver was excised and each stained with hematoxylin and eosin (H&E) and perilipin antibody, the stained tissue was observed using a microscope, and the results are shown in FIGS. 2 to 5. […]

[2] = test system: BV2 microglia cells; assay: BV2 cell NO assay (LPS-induced NO production, Griess reagent); format: cell-based; settings: Mus musculus, BV-2, LPS 1 μg/ml, 24 hours
Protocol: (§2) After the pretreatment, 0.5 mg/ml of the MTT (Sigma, M2128) reagent was further added thereto. After the cells were cultured in a 5% CO2 incubator, the supernatant was discarded, 150 μl of DMSO was added and was shaken for 30 minutes, and an ELISA micro plate reader (Bio Rad Laboratories Inc., California, USA, Model 680) was used to measure the absorbance at a wavelength of 540 nm. All the experimental values were calculated as an average value of three repeated experimental values of the cell protection rate for the control group, and an experiment of suppressing the NO production for each compound was carried out at a concentration in which no cytotoxicity was shown.
(§3) After the reaction, an ELISA micro plate reader (Bio Rad Laboratories Inc., California, USA, Model 680) was used to measure the absorbance at a wavelength of 540 nm. The suppression rate was calculated as a difference in amount of NO produced between the control group and the experimental group, and as shown in the following Table 6 and FIG. 6, Compounds 4, 5, 15, 16, 18, and the like of the present invention were excellent in the effect of suppressing the production of NO, and the effect is also about 5 times to about 9 times better than that of glabridin.

[3] = target: PTP1B (Homo sapiens (Human), UniProt P18031); assay: Experiment of PTP1B inhibition (p-NPP dephosphorylation); format: biochemical; settings: 2 mM p-NPP substrate, 30° C., 30 minutes
PTP1B, sequence (P18031 whole entry, species assumed): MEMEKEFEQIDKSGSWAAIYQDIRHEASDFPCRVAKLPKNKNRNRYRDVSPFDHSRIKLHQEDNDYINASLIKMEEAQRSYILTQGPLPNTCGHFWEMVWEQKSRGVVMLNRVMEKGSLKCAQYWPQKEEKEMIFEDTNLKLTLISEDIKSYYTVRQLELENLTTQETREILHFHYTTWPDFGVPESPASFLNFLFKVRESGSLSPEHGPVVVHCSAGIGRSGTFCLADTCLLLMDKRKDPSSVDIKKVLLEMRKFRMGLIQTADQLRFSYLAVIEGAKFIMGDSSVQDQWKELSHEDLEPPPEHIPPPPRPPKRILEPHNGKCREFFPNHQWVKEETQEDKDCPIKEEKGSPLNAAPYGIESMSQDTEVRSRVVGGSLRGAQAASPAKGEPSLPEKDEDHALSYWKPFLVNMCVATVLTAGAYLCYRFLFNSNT
Excerpt: With respect to PTP1B, the degrees of inhibition (IC50 The half maximal inhibitory concentration) of glabridin, and compounds of Preparation Example 2 (Compound 1), Example 2 (Compound 3), Example 3 (Compound 4), Example 4 (Compound 5), Example 13 (Compound 14), Example 14 (Compound 15), Example 15 (Compound 16), Example 17 (Compound 18), Example 18 (Compound 19) and Example 20 (Compound 21) were compared to each other. For this purpose, the degree of inhibition activity for PTP1B was investigated by using 2 mM p-nitrophenyl phosphate (p-NPP) as a substrate to measure the dephosphorylation degree. First, PTP1B diluted with distilled water was reacted with 2 mM p-nitrophenyl phosphate {p-NPP, 0.1 M NaCl, 1 mM EDTA, 50 mM citrate pH 6.0, and 1 mM dithiothreitol (DTT)} and Compound 1 at various concentrations at 30° C. for 30 minutes, and then the reaction was terminated with a 1 N-sodium hydroxide (NaOH) solution. The absorbance of the samples thus prepared was measured to confirm the inhibition degree (IC50: The half maximal inhibitory concentration) for PTP1B activity according to the concentration of Compound 1. Even for glabridin, Compound 3, Compound 4, Compound 5, Compound 14, Compound 15, Compound 16, Compound 18, Compound 19, and Compound 21, the same measurement was performed.

[4] = test system: RAW264.7 macrophages; assay: RAW264.7 macrophage NO assay (LPS-induced NO production, Griess reagent); format: cell-based
Protocol: as §2, with “pretreatment,” for “pretreatment, 0.5 mg/ml of”, “reagent at a concentration of 0.5 mg/ml” for “reagent”, “incubator for 4 hours,” for “incubator,”
as §3, with “7,” for “6 and FIG. 6,”, “NO.” for “NO, and the effect is also about 5 times to about 9 times better than that of glabridin.”

[5] = test system: DIO mice; assay: Anti-obesity effect for DIO mice (body weight); format: in vivo, C57BL/6 mice; settings: Mus musculus, 672 h; 4 weeks, 150 mg/kg, oral gavage once daily
Protocol: Five-week-old female C57BL/6 mice (Narabio Co., Ltd.) were purchased and fed with only high-fat diet for at least 10 weeks to produce diet induced obesity ([…]) mice. Samples were exactly taken from Preparation Example 1 (glabridin) and the compounds of Examples of the present invention (Compounds 1 to 5, 7, 9, 11, 14 to 16, 21, and 23) according to the administration dose and put into Falcon tubes, 3 ml of a 0.5% methyl cellulose aqueous solution was added thereto and a vortex mixer was used to primarily mix the ingredients in a soft manner, and then a homogenizer (30,000 rpm, Ultra-Turrax® T10 Basic, IKA) was used to treat the sample for 3 minutes while 1.5 ml of a 0.5% methyl cellulose aqueous solution was added thereto. The sample thus prepared was administered through oral gavage using a disposable plastic syringe once daily for 28 days (4 weeks). The body weight was measured twice a week while the DIO mice were bred in this manner. Based on the data thus calculated, the anti-obesity effect (%) was calculated according to the equation defined as follows. Anti-Obesity Effect={(Body weight of control group)−(Body weight of experimental group)}/(Body weight of control group)×100

[6] = test system: db/db mice; assay: Anti-diabetic effects for db/db mice (glycosylated hemoglobin); format: in vivo, C57BLKS/J-db/db mice
Protocol: as §1
The glycosylated hemoglobin (HbA1c) was measured while the db/db mice were bred. The gyclosylated hemoglobin was measured at 2 days prior to group separation, 4 weeks after administration, and 6 weeks after administration, and was measured by fasting the mice for 4 hours on the measurement date, collecting blood from the caudal vein before each material was administered, and using a device for measuring glycosylated hemoglobin (SD A1cCare, SD Biosensor, Inc., Korea).

IC50 [2]: 2300 nM | IC50 [3]: 1900 nM | IC50 ([4]; Mus musculus, RAW264.7, NO production, LPS 1 μg/ml, 24 hours): 4400 nM
SMILES: CCCOc1ccc(C2COc3c(ccc4c3CCC(C)(C)O4)C2)c(O)c1 (stereo not drawn) [Compound 16, 3-(2-hydroxy-4-propoxyphenyl)-8,8-dimethyl-2,3,4,8,9,10-hexahydropyrano [2,3-f] chromene]
liver tissue observation by microscope [1]: small and compact adipocytes | effect of suppressing the production of NO ([4]; RAW264.7 macrophages, in words): excellent | inhibition in vivo at 150 mg/kg [5]: 7% | HbA1c (%) 4 weeks ([6]; 4 weeks after administration, 300 mg/kg oral once daily): 6.7% | HbA1c (%) 6 weeks ([6]; 6 weeks after administration, 300 mg/kg oral once daily): 6.2% | HbA1c (%) Before administration ([6]; before administration, 300 mg/kg group): 4.7%

Source: patent US9783551B2, “Pyranochromenyl phenol derivative, and pharmaceutical composition for treating metabolic syndrome or inflammatory disease” (GLACEUM, INC., priority 2013, dated 2017)
